Reference: EPA's ToxRefDB 2

Assays:
rabbit = conditions: Prenatal developmental toxicity study, new zealand white, Oral, Gavage/Intubation, dose end: 28 GD
rat [1] = conditions: Multigenerational reproductive toxicity study, sprague dawley, Oral, Feed, dose end: 2 generation
dog [2] = conditions: Subchronic oral toxicity in nonrodent, beagle, Feed, dose end: 90 day, group: systemic
mouse [3] = conditions: Carcinogenicity, cd1, Oral, Feed, dose end: 104 week, group: systemic
dog [4] = conditions: Chronic toxicity, beagle, Oral, Feed, dose end: 104 week, group: systemic
rat [5] = conditions: Developmental neurotoxicity study; long evans; Injection; Subcutaneous; dose end: 132 PND; group: cannot be grouped; systemic / pathology gross / brain / reduced size + systemic / pathology microscopic / brain / depletion cellular
mouse [6] = conditions: Subchronic oral toxicity in rodents, cd1, Gavage/Intubation, dose end: 3 month, group: systemic, systemic / pathology microscopic / gallbladder / degeneration + systemic / pathology microscopic / gallbladder / hyperplasia + systemic / …
rat [7] = conditions: Sub-acute repeat dose toxicity, sprague dawley, Oral, Gavage/Intubation, dose end: 1 month, group: systemic
primate = conditions: Sub-acute repeat dose toxicity, macaque, Oral, Gavage/Intubation, dose end: 28 day, group: systemic
rat [8] = conditions: Subchronic oral toxicity in rodents, other, Gavage/Intubation, dose end: 90 day, group: systemic, systemic / in life observation / body weight / body weight + systemic / in life observation / body weight / body weight gain + systemic / …
dog [9] = conditions: Subchronic oral toxicity in nonrodent, beagle, Gavage/Intubation, dose end: 91 day, group: systemic, systemic / in life observation / body weight / body weight + systemic / in life observation / body weight / body weight gain + systemic / …
[10] = group: developmental, developmental / developmental malformation / kidney / small renal papilla
[11] = group: maternal, systemic / in life observation / clinical signs / body surface staining + systemic / in life observation / food consumption / food …
[12] = group: offspring, systemic / in life observation / body weight / offspring (pup) weight
[13] = group: parental, systemic / pathology microscopic / epididymis / hypospermia + systemic / pathology microscopic / testes / atrophy + systemic / pathology …
[14] = systemic / clinical chemistry / cholesterol / cholesterol + systemic / clinical chemistry / albumin / albumin + systemic / in life …
[15] = systemic / pathology microscopic / liver / adenoma/carcinoma combined + systemic / pathology microscopic / liver / carcinoma + systemic / …
[16] = systemic / pathology microscopic / liver / carcinoma + systemic / pathology microscopic / liver / adenoma/carcinoma combined + systemic / …
[17] = systemic / pathology microscopic / liver / [other] + systemic / clinical chemistry / alanine aminotransferase (alt/sgpt) / alanine …
[18] = systemic / pathology microscopic / liver / [other] + systemic / in life observation / body weight / body weight gain + systemic / in life …
[19] = systemic / clinical chemistry / alanine aminotransferase (alt/sgpt) / alanine aminotransferase (alt/sgpt) + systemic / clinical chemistry / …
[20] = systemic / clinical chemistry / albumin / albumin + systemic / clinical chemistry / calcium / calcium + systemic / in life observation / …

Q: With `CCCCNC(=O)n1c(NC(=O)OC)nc2ccccc21` [Benomyl] as the compound, how does the LEL (rabbit; [10]) read?
A: 180 mg/kg/day

Q: What about the LOAEL (rabbit; [10]) of the same compound?
A: 180 mg/kg/day

Q: What about the NEL (rabbit; [10]) of the same compound?
A: 90 mg/kg/day

Q: What about the NOAEL (rabbit; [10]) of the same compound?
A: 90 mg/kg/day

Q: And the LEL (rabbit; [11])?
A: 180 mg/kg/day

Q: What about the LOAEL (rabbit; [11]) of the same compound?
A: 180 mg/kg/day

Q: And the NEL (rabbit; [11])?
A: 90 mg/kg/day

Q: What about the NOAEL (rabbit; [11]) of the same compound?
A: 90 mg/kg/day

Q: And the LEL (rat [1]; [12])?
A: 234 mg/kg/day

Q: What about the LOAEL (rat [1]; [12]) of the same compound?
A: 234 mg/kg/day

Q: What about the NOAEL (rat [1]; [12]) of the same compound?
A: 38 mg/kg/day

Q: What about the NEL (rat [1]; group: offspring, systemic / in life observation / body weight / offspring (pup) weight + systemic / in life observation / clinical signs / reduced body size) of the same compound?
A: 38 mg/kg/day

Q: And the LOAEL (rat [1]; group: parental, systemic / pathology microscopic / epididymis / hypospermia)?
A: 234 mg/kg/day

Q: And the NOAEL (rat [1]; group: parental, systemic / pathology microscopic / epididymis / hypospermia + systemic / in life observation / body weight / body weight + systemic / in …)?
A: 38 mg/kg/day

Q: What about the LEL (rat [1]; [13]) of the same compound?
A: 168 mg/kg/day

Q: What about the NEL (rat [1]; [13]) of the same compound?
A: 28 mg/kg/day

Q: What about the LEL (dog [2]; systemic / clinical chemistry / cholesterol / cholesterol) of the same compound?
A: 12.5 mg/kg/day

Q: What about the LOAEL (dog [2]; systemic / clinical chemistry / cholesterol / cholesterol + systemic / clinical chemistry / alanine aminotransferase (alt/sgpt) / alanine …) of the same compound?
A: 37.5 mg/kg/day

Q: And the NEL (dog [2]; [14])?
A: 2.5 mg/kg/day

Q: What about the NOAEL (dog [2]; [14]) of the same compound?
A: 12.5 mg/kg/day

Q: What about the LOAEL (mouse [3]; [15]) of the same compound?
A: > 750 mg/kg/day

Q: What about the NOAEL (mouse [3]; [15]) of the same compound?
A: ≥ 750 mg/kg/day

Q: What about the LEL (mouse [3]; [16]) of the same compound?
A: 75 mg/kg/day

Q: What about the NEL (mouse [3]; [16]) of the same compound?
A: < 75 mg/kg/day

Q: And the LEL (dog [4]; [17])?
A: 62.5 mg/kg/day

Q: And the LOAEL (dog [4]; [17])?
A: 62.5 mg/kg/day

Q: What about the NEL (dog [4]; [18]) of the same compound?
A: 12.5 mg/kg/day

Q: What about the NOAEL (dog [4]; [18]) of the same compound?
A: 12.5 mg/kg/day

Q: What does the source list for `COc1cc2c(c(OC)c1OC)-c1ccc(OC)c(=O)cc1[C@@H](NC(C)=O)CC2` [Colchicine]?
A: LEL (rat [5]): 0.4 mg/kg/day; LOAEL (rat [5]): > 0.4 mg/kg/day; NEL (rat [5]): < 0.4 mg/kg/day; NOAEL (rat [5]): ≥ 0.4 mg/kg/day

Q: `OCC(CO)n1cnc(-c2ccc(F)cc2)c1-c1ccnc(Oc2ccccc2)n1` was tested. Which LEL (mouse [6]) did it give?
A: 30 mg/kg/day

Q: And the LOAEL (mouse [6])?
A: > 300 mg/kg/day

Q: What about the NEL (mouse [6]) of the same compound?
A: < 30 mg/kg/day

Q: And the NOAEL (mouse [6])?
A: ≥ 300 mg/kg/day

Q: What about the LOAEL (rat [7]; [19]) of the same compound?
A: > 2000 mg/kg/day

Q: What about the NEL (rat [7]; [19]) of the same compound?
A: 3 mg/kg/day

Q: And the NOAEL (rat [7]; [19])?
A: ≥ 2000 mg/kg/day

Q: What about the LEL (rat [7]; systemic / in life observation / body weight / body weight gain) of the same compound?
A: 30 mg/kg/day

Q: And the LOAEL (primate; [20])?
A: > 2000 mg/kg/day

Q: What about the NEL (primate; [20]) of the same compound?
A: 10 mg/kg/day

Q: And the NOAEL (primate; [20])?
A: ≥ 2000 mg/kg/day

Q: What about the LEL (primate; systemic / clinical chemistry / calcium / calcium + systemic / in life observation / clinical signs / feces, discoloration + systemic / …) of the same compound?
A: 300 mg/kg/day

Q: `CCC(CN1CCOCC1)[N+](=O)[O-]` (configuration not stated) [4-(2-Nitrobutyl)morpholine] was tested. Which LEL (rat [8]) did it give?
A: 10 mg/kg/day

Q: And the LOAEL (rat [8])?
A: > 50 mg/kg/day

Q: And the NEL (rat [8])?
A: 5 mg/kg/day

Q: And the NOAEL (rat [8])?
A: ≥ 50 mg/kg/day

Q: And the LEL (dog [9])?
A: 25 mg/kg/day

Q: And the LOAEL (dog [9])?
A: 25 mg/kg/day

Q: And the NEL (dog [9])?
A: 10 mg/kg/day

Q: And the NOAEL (dog [9])?
A: 10 mg/kg/day
